Experimental data reported in patent US6362212B1, “Oxime derivative and bactericide containing the same as active ingredient” (Shionogi & Company, Ltd., priority 1994, dated 2002).

Key:
Assay type in all cases: in vivo
Puccinia coronata = experiment: Controlling effect on Puccinia coronata by foliage application (pot experiment); details: foliage spray on oat (cv. PC-38) seedlings, infected area after 1 day moist chamber and 8 days greenhouse at 20° C.
Method: The following Test Examples illustrate the effects of the fungicide of the present invention. (I. Controlling effects on various plant diseases by foliage application (pot experiment)) A test compound was dissolved in a small amount of N,N-dimethylformamide, and the solution was diluted to a given concentration with distilled water containing a spreader. Thus, a liquid sample to be tested was prepared. The liquid sample was sprayed to test plants, and 24 hours thereafter, pathogens were inoculated by the method described below. […] The seeds of oat (cv.: PC-38) were sown in plastic cups (each 9 cm in diameter), followed by cultivation for 2 to 3 weeks. The test compound in the form of a solution or suspension was sprayed to the seedlings. Spores of Puccinia coronata cultured on oat leaves were collected, diluted about 10-fold with talc, and sprayed to the test plants to inoculate the plants with the pathogen. After the inoculation, the plants were kept in a moist chamber at 20° C. for 1 day and then in a greenhouse at 20° C. for 8 days. The infected area on the leaf was observed, and the percent control was calculated.

[1] = system: Pseudoperonospora cubensis; experiment: Controlling effect on Pseudoperonospora cubensis by foliage application (pot experiment); details: foliage spray on cucumber (var. TSUKUBASHIROIBO) first leaves, lesion area after 10 days in moist chamber at 20° C.
Method: The following Test Examples illustrate the effects of the fungicide of the present invention. (I. Controlling effects on various plant diseases by foliage application (pot experiment)) A test compound was dissolved in a small amount of N,N-dimethylformamide, and the solution was diluted to a given concentration with distilled water containing a spreader. Thus, a liquid sample to be tested was prepared. The liquid sample was sprayed to test plants, and 24 hours thereafter, pathogens were inoculated by the method described below. […] The seeds of cucumber (var.: […]) were sown in plastic cups (each 9 cm in diameter), followed by cultivation for 2 to 3 weeks. The test compound in the form of a solution or suspension was sprayed to the surface of their first leaves, and a zoosporangia suspension of Pseudoperonospora cubensis cultured on cucumber leaves was dropped on the above leaf surfaces to inoculate the test plants with the pathogen. After the inoculation, the plants were kept in a moist chamber at 20° C. for 10 days. Then, the area of the lesions around the inoculum were observed and the percent control was calculated.

[2] = system: Erysiphe graminis f. sp. tritici; experiment: Controlling effect on Erysiphe graminis f. sp. tritici by foliage application (pot experiment); details: foliage spray on wheat (cv. NORIN No. 61) seedlings, infected area after 10 days in greenhouse at 20° C.
Outline: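 Wheat seedlings (cv. NORIN No. 61, 2-3 weeks old) sprayed with compound in DMF diluted in water with spreader, then inoculated with conidia 24 hours later. Kept in greenhouse at 20 °C for 10 days; percent control calculated from infected leaf area.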

Pyricularia oryzae = details: foliage spray on rice seedlings (cv. […]), number of lesions six days after the inoculation
Sphaerotheca fuliginea = experiment: Controlling effect on Sphaerotheca fuliginea by foliage application (pot experiment); details: foliage spray on cucumber (cv. TSUKUBASHIROIBO) first leaves, infected area after 10 days in greenhouse at 20° C.
Outline: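 First leaves of cucumber seedlings, 2-3 weeks old, were sprayed with compound (DMF solution diluted in water with spreader). They were inoculated 24 h later with a Sphaerotheca fuliginea conidia spray and kept 10 days at 20° C in a greenhouse. Percent control was calculated from infected leaf area.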

Compound: CON=C(c1noc(C)n1)c1ccccc1COc1ccc(C)cc1 [compound 914]
- Controllng effect on Puccinia coronata by foliage application at 500 ppm (percent control) (Puccinia coronata): 97 percent control

Compound: CON=C(c1cc(C)no1)c1ccccc1COc1ncc(C(F)(F)F)cc1Cl (single isomer, unassigned) [690A, 2-(3-chloro-5-trifluoromethyl-2-pyridyloxymethyl)phenyl 3-methylisoxazol-5-yl ketone O-methyloxime]
- Controlling effect on Pseudoperonospora cubensis by foliage application at 500 ppm (percent control) [1]: 100 percent control
- pest or weed control at 500 ppm ([2]; Blumeria graminis, foliar, 240 h, read-out: Controlling effect on ErYsiphe graminis f. sp. tritici by foliage application at 500 ppm (percent control)): 100%
- Controlling effect on PYricularia orYzae by foliage application at 500 ppm (percent control) (Pyricularia oryzae): 97 percent control
- pest or weed control at 500 ppm (Sphaerotheca fuliginea; Podosphaera fuliginea, in Cucumis sativus, foliar, 240 h, read-out: Controlling effect on Sphaerotheca fuliginea by foliage application at 500 ppm (percent control)): 100%

Compound: CCON=C(c1ccccc1COc1ccccc1)n1cncn1 [compound 275]
- Controllng effect on Puccinia coronata by foliage application at 500 ppm (percent control) (Puccinia coronata): 90 percent control
- Controlling effect on ErYsiphe graminis f. sp. tritici by foliage application at 500 ppm (percent control) [2]: 90 percent control
- Controlling effect on Sphaerotheca fuliginea by foliage application at 500 ppm (percent control) (Sphaerotheca fuliginea): 100 percent control

Compound: CON=C(c1nnco1)c1ccccc1COc1cc(Cl)ccc1Cl [compound 731]
- Controlling effect on Pseudoperonospora cubensis by foliage application at 500 ppm (percent control) [1]: 100 percent control
- Controlling effect on ErYsiphe graminis f. sp. tritici by foliage application at 500 ppm (percent control) [2]: 70 percent control
- Controlling effect on PYricularia orYzae by foliage application at 500 ppm (percent control) (Pyricularia oryzae): 70 percent control
- Controlling effect on Sphaerotheca fuliginea by foliage application at 500 ppm (percent control) (Sphaerotheca fuliginea): 100 percent control

Compound: CCc1cccc(OCc2ccccc2C(=NOC)c2nnco2)c1 [compound 716]
- Controlling effect on Pseudoperonospora cubensis by foliage application at 500 ppm (percent control) [1]: 100 percent control
- Controlling effect on ErYsiphe graminis f. sp. tritici by foliage application at 500 ppm (percent control) [2]: 70 percent control
- Controlling effect on PYricularia orYzae by foliage application at 500 ppm (percent control) (Pyricularia oryzae): 70 percent control
- Controlling effect on Sphaerotheca fuliginea by foliage application at 500 ppm (percent control) (Sphaerotheca fuliginea): 100 percent control

Compound: CON=C(c1ccccc1COc1ccccc1)c1nnnn1C [compound 1001]
- Controllng effect on Puccinia coronata by foliage application at 500 ppm (percent control) (Puccinia coronata): 70 percent control

Compound: CON=C(c1ccno1)c1ccccc1COc1cc(C)ccc1C (single isomer, unassigned) [536A]
- Controllng effect on Puccinia coronata by foliage application at 500 ppm (percent control) (Puccinia coronata): 90 percent control
- Controlling effect on ErYsiphe graminis f. sp. tritici by foliage application at 500 ppm (percent control) [2]: 97 percent control
- Controlling effect on Sphaerotheca fuliginea by foliage application at 500 ppm (percent control) (Sphaerotheca fuliginea): 100 percent control

Compound: CON=C(c1ccccc1CON=C(C)c1cccc(C(F)(F)F)c1)C1SCCN1C (stereo not shown) [Compound No. 2839]
- Controlling effect on Pseudoperonospora cubensis by foliage application at 500 ppm (percent control) [1]: 95 percent control
- Controlling effect on ErYsiphe graminis f. sp. tritici by foliage application at 500 ppm (percent control) [2]: 97 percent control
- Controlling effect on PYricularia orYzae by foliage application at 500 ppm (percent control) (Pyricularia oryzae): 90 percent control
- Controlling effect on Sphaerotheca fuliginea by foliage application at 500 ppm (percent control) (Sphaerotheca fuliginea): 100 percent control

Compound: CON=C(c1nnn(C)n1)c1ccccc1COc1ccccc1 [compound 2001]
- Controllng effect on Puccinia coronata by foliage application at 500 ppm (percent control) (Puccinia coronata): 70 percent control
- Controlling effect on Sphaerotheca fuliginea by foliage application at 500 ppm (percent control) (Sphaerotheca fuliginea): 70 percent control

Compound: CON=C(c1ccccc1COc1cc(Cl)ccc1Cl)c1nccn1C (single isomer, unassigned) [131A]
- Controlling effect on Pseudoperonospora cubensis by foliage application at 500 ppm (percent control) [1]: 100 percent control
- Controlling effect on ErYsiphe graminis f. sp. tritici by foliage application at 500 ppm (percent control) [2]: 90 percent control
- Controlling effect on PYricularia orYzae by foliage application at 500 ppm (percent control) (Pyricularia oryzae): 90 percent control
- Controlling effect on Sphaerotheca fuliginea by foliage application at 500 ppm (percent control) (Sphaerotheca fuliginea): 100 percent control

Compound: CON=C(C1=NCCN1C)c1ccccc1COc1cc(C)ccc1C [Compound No. 1136]
- Controllng effect on Puccinia coronata by foliage application at 500 ppm (percent control) (Puccinia coronata): 90 percent control
- Controlling effect on ErYsiphe graminis f. sp. tritici by foliage application at 500 ppm (percent control) [2]: 90 percent control
- Controlling effect on Sphaerotheca fuliginea by foliage application at 500 ppm (percent control) (Sphaerotheca fuliginea): 100 percent control

Compound: CON=C(c1ccon1)c1ccccc1COc1cccc(C)c1 (mixture of isomers) [compound 313]
- Controlling effect on Pseudoperonospora cubensis by foliage application at 500 ppm (percent control) [1]: 100 percent control
- Controlling effect on ErYsiphe graminis f. sp. tritici by foliage application at 500 ppm (percent control) [2]: 70 percent control
- Controlling effect on PYricularia orYzae by foliage application at 500 ppm (percent control) (Pyricularia oryzae): 90 percent control
- Controlling effect on Sphaerotheca fuliginea by foliage application at 500 ppm (percent control) (Sphaerotheca fuliginea): 100 percent control

Compound: CON=C(c1ccccc1COc1cccnc1Cl)n1ccnc1 [compound 57]
- Controllng effect on Puccinia coronata by foliage application at 500 ppm (percent control) (Puccinia coronata): 90 percent control
- Controlling effect on ErYsiphe graminis f. sp. tritici by foliage application at 500 ppm (percent control) [2]: 70 percent control
- Controlling effect on Sphaerotheca fuliginea by foliage application at 500 ppm (percent control) (Sphaerotheca fuliginea): 90 percent control

Compound: CON=C(c1ccno1)c1ccccc1COc1ccccc1C (single isomer, unassigned) [512A]
- Controlling effect on Pseudoperonospora cubensis by foliage application at 500 ppm (percent control) [1]: 100 percent control
- Controlling effect on ErYsiphe graminis f. sp. tritici by foliage application at 500 ppm (percent control) [2]: 97 percent control
- Controlling effect on PYricularia orYzae by foliage application at 500 ppm (percent control) (Pyricularia oryzae): 90 percent control
- Controlling effect on Sphaerotheca fuliginea by foliage application at 500 ppm (percent control) (Sphaerotheca fuliginea): 100 percent control

Compound: CON=C(c1ccccc1COc1cccc(C)c1)c1nccn1C (single isomer, unassigned) [113A]
- Controlling effect on Pseudoperonospora cubensis by foliage application at 500 ppm (percent control) [1]: 100 percent control
- Controlling effect on ErYsiphe graminis f. sp. tritici by foliage application at 500 ppm (percent control) [2]: 90 percent control
- Controlling effect on PYricularia orYzae by foliage application at 500 ppm (percent control) (Pyricularia oryzae): 97 percent control
- Controlling effect on Sphaerotheca fuliginea by foliage application at 500 ppm (percent control) (Sphaerotheca fuliginea): 100 percent control

Compound: CON=C(c1ccno1)c1ccccc1COc1ccccc1C (single isomer, unassigned) [512B]
- Controlling effect on Pseudoperonospora cubensis by foliage application at 500 ppm (percent control) [1]: 100 percent control
- Controlling effect on ErYsiphe graminis f. sp. tritici by foliage application at 500 ppm (percent control) [2]: 97 percent control
- Controlling effect on PYricularia orYzae by foliage application at 500 ppm (percent control) (Pyricularia oryzae): 97 percent control
- Controlling effect on Sphaerotheca fuliginea by foliage application at 500 ppm (percent control) (Sphaerotheca fuliginea): 100 percent control

Compound: CON=C(c1cc(C)no1)c1ccccc1COc1ccc(Cl)cc1C (single isomer, unassigned) [641A]
- Controlling effect on Pseudoperonospora cubensis by foliage application at 500 ppm (percent control) [1]: 100 percent control
- Controlling effect on ErYsiphe graminis f. sp. tritici by foliage application at 500 ppm (percent control) [2]: 90 percent control
- Controlling effect on PYricularia orYzae by foliage application at 500 ppm (percent control) (Pyricularia oryzae): 70 percent control
- Controlling effect on Sphaerotheca fuliginea by foliage application at 500 ppm (percent control) (Sphaerotheca fuliginea): 100 percent control

Compound: CON=C(c1ccon1)c1ccccc1COc1cccc(Cl)c1 (mixture of isomers) [compound 306]
- Controlling effect on Pseudoperonospora cubensis by foliage application at 500 ppm (percent control) [1]: 100 percent control
- Controlling effect on ErYsiphe graminis f. sp. tritici by foliage application at 500 ppm (percent control) [2]: 70 percent control
- Controlling effect on PYricularia orYzae by foliage application at 500 ppm (percent control) (Pyricularia oryzae): 70 percent control
- Controlling effect on Sphaerotheca fuliginea by foliage application at 500 ppm (percent control) (Sphaerotheca fuliginea): 97 percent control

Compound: C=CCON=C(c1ccccc1COc1ccccc1)n1cccn1 [compound 298]
- Controllng effect on Puccinia coronata by foliage application at 500 ppm (percent control) (Puccinia coronata): 70 percent control

Compound: CON=C(c1ccno1)c1ccccc1COc1ccc(Cl)cc1C (single isomer, unassigned) [541B]
- Controlling effect on Pseudoperonospora cubensis by foliage application at 500 ppm (percent control) [1]: 100 percent control
- Controlling effect on ErYsiphe graminis f. sp. tritici by foliage application at 500 ppm (percent control) [2]: 90 percent control
- Controlling effect on PYricularia orYzae by foliage application at 500 ppm (percent control) (Pyricularia oryzae): 70 percent control
- Controlling effect on Sphaerotheca fuliginea by foliage application at 500 ppm (percent control) (Sphaerotheca fuliginea): 100 percent control

Compound: CON=C(C1=NCCN1C)c1ccccc1COc1cccc(C)c1 [compound 1113]
- Controllng effect on Puccinia coronata by foliage application at 500 ppm (percent control) (Puccinia coronata): 70 percent control

Compound: CON=C(c1cc(C)no1)c1ccccc1COc1ccc(C)cc1 (single isomer, unassigned) [614B]
- Controlling effect on Pseudoperonospora cubensis by foliage application at 500 ppm (percent control) [1]: 100 percent control
- Controlling effect on ErYsiphe graminis f. sp. tritici by foliage application at 500 ppm (percent control) [2]: 70 percent control
- Controlling effect on PYricularia orYzae by foliage application at 500 ppm (percent control) (Pyricularia oryzae): 70 percent control
- Controlling effect on Sphaerotheca fuliginea by foliage application at 500 ppm (percent control) (Sphaerotheca fuliginea): 97 percent control
